The numbers were not newly measured in patent publication US20260183325A1, “SUSTAINED OR IMMEDIATE RELEASE ENERGY, MENTAL FOCUS, AND PHYSICAL RECOVERY NUTRITIONAL SUPPLEMENT BLEND, DIETARY SUPPLEMENT, FUNCTIONAL FOOD AND FUNCTIONAL BEVERAGE” (Matchstick Brands, LLC, priority 2023, published 2026), which cites them from elsewhere.

For this series the following is noted: during working memory processes (Koppelstatter et al. 2008).

In the case of `Cn1c(=O)c2c(ncn2C)n(C)c1=O` [caffeine], the “fMRI signal changes in a network of brain areas associated with executive and attentional functions” value is given as “increases”.
